In PMC10384011, “m-Terphenylamines, Acting as Selective COX-1 Inhibitors, Block Microglia Inflammatory Response and Exert Neuroprotective Activity” (Molecules, 2023):

Experiments:
[1] = target: T1, ovine COX-1 (Ovis aries, UniProt P05979); experiment: Cyclooxygenase colorimetric inhibitor screening assay, COX-1; format: biochemical;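 also: COX peroxidase activity read colorimetrically as oxidized TMPD at 590 nm, arachidonic acid as substrate, inhibitors tested at 0.001–50 µM from DMSO stocks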
T1 construct: purchased Cayman Chemicals 701050
T1 sequence (P05979 25-600): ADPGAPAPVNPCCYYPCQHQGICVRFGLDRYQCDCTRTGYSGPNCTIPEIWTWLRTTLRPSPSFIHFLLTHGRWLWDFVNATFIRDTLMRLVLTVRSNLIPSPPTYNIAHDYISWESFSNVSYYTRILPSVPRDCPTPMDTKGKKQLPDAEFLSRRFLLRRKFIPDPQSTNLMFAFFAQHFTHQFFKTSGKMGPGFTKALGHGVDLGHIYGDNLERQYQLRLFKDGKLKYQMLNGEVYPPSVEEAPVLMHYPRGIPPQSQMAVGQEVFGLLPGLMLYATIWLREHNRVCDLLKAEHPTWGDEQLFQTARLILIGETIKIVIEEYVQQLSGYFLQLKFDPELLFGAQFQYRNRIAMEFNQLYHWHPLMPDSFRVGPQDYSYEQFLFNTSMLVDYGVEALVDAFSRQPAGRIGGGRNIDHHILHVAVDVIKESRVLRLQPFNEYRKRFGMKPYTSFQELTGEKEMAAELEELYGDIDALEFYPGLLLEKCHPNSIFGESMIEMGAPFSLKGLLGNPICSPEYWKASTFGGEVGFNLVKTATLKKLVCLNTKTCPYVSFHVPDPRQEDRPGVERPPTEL
Method: Newly synthesized compounds were evaluated for their ability to inhibit ovine COX-1 or human COX-2 enzyme by measuring the extent (%) of enzyme activity inhibition at different concentrations (0.001, 0.01, 0.1, 1, 10, 50 μM). […] The assay kit measures the peroxidase component of COXs that is assayed colorimetrically by monitoring the appearance of oxidized N,N,N′,N′-tetramethyl-p-phenylenediamine (TMPD) a λ = 590 nm. […] Stock solutions of test compounds were dissolved in DMSO.

[2] = tested on: BV2 microglia cells; experiment: Nitrite release (Griess reaction) in LPS-treated BV2 microglia; format: cell-based; conditions: LPS 1 μg/mL, basal = 100
Description: The COX-1 inhibition data prompted us to undertake further work on the activity of compounds 3 in a neuroinflammation situation. Once we had verified that the compounds studied were not toxic per se in microglia BV2 cells (see the data in Table S1), we measured the nitrites released to determine the efficacy of our compounds in reducing microglia activation. Nitric oxide is a potent mediator of the classic activated microglia phenotype (M1); in fact, the lack of nitrite release correlated with an anti-inflammatory microglia (M2) phenotype. Therefore, we evaluated the response of the BV2 microglia cells to a challenge of 1 μg/mL LPS. For this purpose, BV2 microglia cells were incubated with LPS, a well-known agonist of the toll-like receptor 4 (TLR4) that causes a neuroinflammatory response, in combination with increasing concentrations of our COX-1 inhibitors (1, 3, and 10 μM). […] Similar results were observed after 48 h of the LPS treatment.
(§1) Cultures were seeded into flasks containing supplemented medium and kept at 37 °C in a humidified atmosphere of 5% CO2 and 95% air. For assays, BV-2 cells were subcultured in 48-well plates at a seeding density of 1 × 10^5 cells per well. Cells were treated with LPS (Sigma-Aldrich, Madrid, Spain) for 24 or 48 h before confluence in RPMI with 1% FBS.
The NO assay was performed using the previously reported protocols. Briefly, 100 μL of culture supernatants were mixed with the same volume of Griess assay regent (1% sulfanilamide (Sigma Aldrich, Madrid, Spain), 0.1% naphthylethylenediamine dihydrochloride, and 2.5% phosphoric acid). Ten minutes later, the 560-nm absorbance was measured.

[3] = tested on: BV2 microglia cells; experiment: LPS-induced activated (ramified) phenotype of BV2 microglia; format: cell-based; conditions: 3 μM, LPS 1 μg/mL, 24 h
Description: Next, we set out to study the changes in microglia phenotype under this toxicity protocol. As mentioned above, microglia are comprised of variable morphology cells that are always adapting to the surrounding media and, therefore, to physiopathological conditions. Indeed, morphological appearance is well correlated with the different states of microglia activation. The microglia-activated phenotype (M1), which is the classical state of this kind of cell in response to proinflammatory insults such as LPS, is linked with the overexpression of a plethora of cytokines and inflammatory markers, namely TNF, IL-1β, IL-6, MCP-1 or CD11b. All of these markers are commonly associated with morphological changes towards an amoeboid phenotype in primary cultures or in in vivo studies. Nevertheless, it has been recently described that BV2 microglia, as well as macrophages, turn from rounded to spindle-shaped or multipolar phenotypes in response to various M1 proinflammatory stimuli such as LPS/IFNγ or spinal cord injury conditioned media. In this context, we assessed the ability of our compounds to prevent the morphological changes induced by LPS by analyzing the percentage of BV2 ramified cells (multipolar or spindle) over the total BV2 per field following cell incubation with our compounds and 1 μg/mL LPS for 24 h.
as §1

[4] = tested on: organotypic hippocampal cultures (OHCs); experiment: Cell death (propidium iodide uptake, CA1) in organotypic hippocampal cultures treated with LPS; format: cell-based, Sprague-Dawley rats; conditions: LPS 1 μg/mL, 24 h
Method: With these promising data in hand, we selected compound 3b for its study in a more complex preparation. In vivo administration of LPS produces a proinflammatory cascade that causes memory deficits, an increase of inflammatory markers, and impairment of hippocampal glutamatergic transmission, contributing to neuronal death. All of these functional changes have been described to take place mainly in the hippocampus region. Thus, we subjected organotypic hippocampal cultures (OHCs) to LPS (1 μg/mL) to assess the protective effect of COX-1 inhibition. This kind of explant allows us to study the microglia-neuron network in a more complex and physiological model of cerebral insult.
OHCs were conducted on 8–10-day-old Sprague-Dawley rats supplied by the animal facilities of Universidad Autónoma de Madrid (Madrid, Spain). Cultures were prepared according to the methods described by Stoppini et al. with some modifications. […]
Cell death was determined in the CA1 region by staining the OHCs with propidium iodide (PI). Thirty minutes before analyzing fluorescence, slices were incubated with PI (1 µg/mL). Fluorescence was measured in an epifluorescence Olympus BX50WI microscope. […] Fluorescence was measured in each slice using ImageJ.

SMILES: Cc1ccc(-c2cc(N)cc(-c3ccccc3)c2)cc1 [Compound 3b, 4-Methyl-5′-amino-m-terphenyl]
- inhibition at 50 µM ([1]; ovine COX-1, 50 µM, read-out: oCOX-1, % Inhibition at 50 µM (converted)): 83%
- IC50 ([1]; ovine COX-1, colorimetric kit, triplicate, read-out: oCOX-1, IC50): 1.1 ± 0.18 µM
- COX-1 selectivity (in words) ([1]; ovine COX-1 vs human COX-2): complete selectivity towards COX-1
- Nitrite Release after 24 h ([2]; 1 μM): 123 ± 8%
- Nitrite Release after 48 h ([2]; 1 μM): 140 ± 14%
- Nitrite Release after 24 h ([2]; 3 μM): 100 ± 4 %
- Nitrite Release after 48 h ([2]; 3 μM): 123 ± 10 %
- Nitrite Release after 24 h ([2]; 10 μM): 105 ± 6 %
- Nitrite Release after 48 h ([2]; 10 μM): 128 ± 10 %
- Reduction of the number of BV2 ramified cells [3]: 60%
- Cell death (PI uptake in CA1) induced by LPS [4]: reduced cell death induced by LPS almost to basal levels
